Patent US12679903B2, “Antibody for specifically binding to lysyl-tRNA synthetase N-terminal domain exposed to extracellular membrane” (Zymedi Co., Ltd., priority 2018, dated 2026)

Key:
Type in all cases: in vivo, SD rats
[1] = PAH model, body weight and abnormal signs; conditions: MCT + Sildenafil
From the text: (§1) To induce PAH in 7-week-old SD rats (Oriental Bio), 60 mpk of MCT (monocrotaline) were subcutaneously injected. Thereafter, the rats were divided into four groups (tested with five animals in each group), and were administrated with 1mpk of Mock human IgG (Thermo Fisher Scientific, negative control), 1mpk of N3 IgG antibody, 10mpk of N3 IgG antibody, and 25 mpk of sildenafil (positive control) for 3 weeks. All antibodies were i.v. injected twice a week and sildenafil was orally administered every day.

[2] = test system: pulmonary arterial hypertension (PAH) models; test: PAH model, echocardiography; conditions: MCT PAH rats
From the text: as §1

[3] = test system: pulmonary arterial hypertension (PAH) models; test: PAH model, blood flow and blood pressure measurement; conditions: MCT + Sildenafil 25 mpk, orally every day, 3 weeks
From the text: as §1
After three weeks, the rats were anesthetized with isoflurane, and blood flow and pressure were measured using an MPVS Cardiovascular Pressure and Volume system (model name: MPVS Ultra, manufacturer: Millar Instruments). The right ventricular end-systolic pressure (RVESP), right ventricular end-diastolic pressure, left ventricular end-systolic pressure, left ventricular end-diastolic pressure were measured using an exclusive catheter (Mikro-Tip rat pressure catheter, manufacturer: Millar Instruments). The cardiac output was measured using a perivascular blood flow probe (Transonic Flow probes, manufacturer: […]), and experimental method thereof was performed by the same method as disclosed in the following literature: Pacher P, Nagayama T, Mukhopadhyay P, Batkai S, Kass DA. Measurement of cardiac function using pressure-volume conductance catheter technique in mice and rats. Nat Protoc 2008; 3 (9): 1422-34.

CCCc1nn(C)c2c(=O)[nH]c(-c3cc(S(=O)(=O)N4CCN(C)CC4)ccc3OCC)nc12 [Sildenafil, sildenafil]
body weight, Absolute change [1]: 104.1 ± 26.4 g | body weight, Relative change [1]: 49.8 ± 10.5% | D-shaped left ventricle indicating pressure overload in the right ventricle [2]: three animals | CO [3]: 49.6 ± 17.7 mL/min | LVEDP [3]: 3.6 ± 2.3 mmHg | LVESP [3]: 83.2 ± 4.7 mmHg | RVEDP [3]: 2.6 ± 1.3 mmHg | RVESP [3]: 48.4 ± 9.6 mmHg
